# Paper PMC9250511, “Metabolomics-guided discovery of cytochrome P450s involved in pseudotropine-dependent biosynthesis of modified tropane alkaloids” (Nature Communications, 2022)
# Assays:
# AbP450-5021 = target: T1, AbP450-5021 (Atropa belladonna, UniProt A0A3G4RHX1); assay: transient expression in N. benthamiana leaves, UHPLC/HRMS of products; format: cell-based; settings: 1 mM substrate hydrochloride infiltrated in leaf, 2 days
# T1 construct: full-length ORF in pEAQ-HT-DEST1, transiently produced in Nicotiana benthamiana leaves
# T1 sequence (A0A3G4RHX1 entry or part of it): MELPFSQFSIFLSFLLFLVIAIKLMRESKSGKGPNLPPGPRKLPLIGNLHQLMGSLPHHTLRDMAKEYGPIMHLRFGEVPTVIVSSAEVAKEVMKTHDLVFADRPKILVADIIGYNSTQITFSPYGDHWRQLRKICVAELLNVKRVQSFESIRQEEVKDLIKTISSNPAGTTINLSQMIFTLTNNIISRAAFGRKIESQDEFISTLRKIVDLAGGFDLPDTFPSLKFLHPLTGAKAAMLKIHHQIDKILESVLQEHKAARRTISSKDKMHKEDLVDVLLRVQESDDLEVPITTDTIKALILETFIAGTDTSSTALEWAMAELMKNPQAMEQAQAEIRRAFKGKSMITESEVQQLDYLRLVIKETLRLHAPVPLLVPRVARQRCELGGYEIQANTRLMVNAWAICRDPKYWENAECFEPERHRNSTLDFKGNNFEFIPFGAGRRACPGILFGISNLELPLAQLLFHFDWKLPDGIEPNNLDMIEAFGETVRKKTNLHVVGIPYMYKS
# AbP450-116623 = target: T2, AbP450-116623 (Atropa belladonna, UniProt A0A3G4RHW9); assay: as above; format: cell-based; settings: 1 mM substrate hydrochloride infiltrated in leaf, 2 days; ring-hydroxylation at carbon adjacent to ring nitrogen (isomer 1)
# T2 construct: full-length ORF in pEAQ-HT-DEST1, transiently produced in Nicotiana benthamiana leaves
# T2 sequence (A0A3G4RHW9 entry or part of it): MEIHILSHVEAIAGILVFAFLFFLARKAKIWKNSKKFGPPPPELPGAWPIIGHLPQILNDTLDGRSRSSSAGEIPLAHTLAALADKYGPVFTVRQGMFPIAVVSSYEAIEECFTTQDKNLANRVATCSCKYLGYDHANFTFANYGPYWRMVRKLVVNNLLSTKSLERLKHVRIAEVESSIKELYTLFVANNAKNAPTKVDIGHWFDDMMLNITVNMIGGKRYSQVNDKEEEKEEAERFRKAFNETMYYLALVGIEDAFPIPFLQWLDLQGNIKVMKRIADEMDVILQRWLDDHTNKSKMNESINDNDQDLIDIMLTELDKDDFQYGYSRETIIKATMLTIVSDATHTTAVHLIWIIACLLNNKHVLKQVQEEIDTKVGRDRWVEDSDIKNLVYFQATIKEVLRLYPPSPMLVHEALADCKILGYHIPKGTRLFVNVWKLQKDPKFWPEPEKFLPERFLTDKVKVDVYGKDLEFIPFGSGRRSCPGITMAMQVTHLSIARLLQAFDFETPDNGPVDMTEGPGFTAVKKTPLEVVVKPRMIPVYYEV
SMILES,"transient expression in N. benthamiana leaves, UHPLC/HRMS of products (AbP450-5021; N-demethylation to tigloyl norpseudotropine, then ring-hydroxylation (isomer 2))","transient expression in N. benthamiana leaves, UHPLC/HRMS of products (AbP450-116623)","transient expression in N. benthamiana leaves, UHPLC/HRMS of products (AbP450-5021; ring-hydroxylation next to the esterified carbon (isomer 2))"
"C/C=C(\C)C(=O)OC1CC2CCC(C1)N2C (stereo not drawn) [compound 6, tigloyl pseudotropine]",producing AbP450-5021 alone using either tigloyl pseudotropine or tigloyl norpseudotropine as substrate,,
"C/C=C(\C)C(=O)O[C@@H]1C[C@H]2CC[C@@H](C1)N2 [compound 21, tigloyl norpseudotropine]",,Assays with AbP450-116623 alone and N-demethylated tigloyl norpseudotropine as substrate yielded tigloyl hydroxynorpseudotropine,producing AbP450-5021 alone using either tigloyl pseudotropine or tigloyl norpseudotropine as substrate
